Measurements: patent US8772297B2, “TGF-β signal transduction inhibitor” (Kyoto University, priority 2010, dated 2014)

What was measured:
ARPE-19 cells = assay: Evaluation of TGF-β-induced epithelial-mesenchymal transition (EMT) inhibitory activity; format: cell-based; details: human TGF-β2 10 ng/mL and human TNF 10 ng/mL, 2 days, Giemsa stain, FIG. 1
Method: Human retinal pigment epithelial cells (ARPE-19 cells) were seeded in a 96 well plate at a concentration of 1.2×10^4 cells/well, and cultured overnight (5% CO2, 37° C.) in DMEM/F12 medium containing 10% fetal bovine serum, penicillin (100 U/mL), streptomycin (100 μg/mL) and Hepes (10 mM). The next day, the medium was changed to a serum-free medium, and a test compound was added. After 1 hr, the cells were stimulated with human TGF-β2 (10 ng/mL) and human TNF (10 ng/mL). After culture for 2 days, the cells were stained with Giemsa, and the influence of the compound on the formation of cell aggregates was evaluated.

liver Kupffer cells = assay: Influence on activation of liver Kupffer cells in primary culture system; format: cell-based; details: rat primary culture, 7 days
Method: Wistar rat (bred under SPF, male, 15-week-old) was subjected to laparotomy under pentobarbital anesthesia, a catheter was inserted into the portal vein, and perfusion was performed successively with a washing solution for hemorrhage, a 0.06% pronase solution (manufactured by Carbiochem), and a 0.03% collagenase (manufactured by Wako Pure Chemical Industries, Ltd.) solution. Then, the liver was isolated and incubated in a liver Kupffer cell separation buffer containing 0.057% pronase and 0.057% collagenase, and supplemented with 2 mg/mL DNaseI (1 mL, manufactured by Roche Diagnostics) in a warm bath at 36° C. for 30 min. During this period, the pH of the lysate was maintained at 7.2-7.4 with 1N NaOH. Then, the hepatic tissue digestive product was filtered through a mesh, a liver Kupffer cell separation buffer was added to the obtained filtrate to the total amount of 150 mL. The mixture was dispensed to three 50-mL polypropylene tubes, and centrifuged at 4° C., 2000 rpm for 8 min. […]
On the other hand, respective cells were washed with phosphate buffer (PBS: phosphate buffered saline) 7 days later, and fixed with 4% para-formaldehyde at room temperature for 10 min. […] Then, the cells were washed with PBST, and the α smooth muscle actin (αSMA) expression level was observed under a fluorescence microscope.

[1] = tested on: mouse bile duct ligation induced hepatic fibrosis model; assay: Anti-fibrillization action in mouse bile duct ligation induced hepatic fibrosis model (BDL model); format: in vivo; details: ICR mice, tail vein once a day for 14 days, qPCR vs GAPDH, FIG. 4
Method: Hepatopathy caused by accumulation of bile in the liver and therewith associated liver fibrillization are induced by ligating the bile duct of mouse. The effect of the test compound on the hepatopathy and liver fibrillization associated therewith was evaluated. […]
mRNA was extracted from the hepatic tissue preserved in RNALater by using an RNA purification kit RNeasy Micro Kit (manufactured by QIAGEN), and the RNA concentration was determined using a spectrophotometer (Nano Drop). […] Using SYBR® Premix EX Taq™ (manufactured by TAKARA), a reaction mixture was prepared according to the package insert, qPCR reaction was performed using respective primers for αSMA and the internal standard GAPDH (manufactured by Invitrogen), and the mRNA expression level was quantified.

SMILES: CN(C)c1ccc(NS(=O)(=O)c2cccc(S(=O)(=O)NCC3CCN(C(=O)OC(C)(C)C)CC3)c2)cc1-c1ccco1 [Y244, 4-{[3-(4-dimethylamino-3-furan-2-yl-phenylsulfamoyl)benzenesulfonylamino]methyl}piperidine-1-carboxylic acid tert-butyl ester]
- EMT induced by TGF-β (formation of cell aggregates) (ARPE-19 cells): remarkably suppressed
- expression of α smooth muscle actin associated with the activation of liver Kupffer cells (liver Kupffer cells; Cy3-labeled anti-αSMA antibody, fluorescence microscope, FIG. 3): remarkably suppressed
- cell morphology change caused by the activation of liver Kupffer cells (liver Kupffer cells; bright field, FIG. 2): suppressed
- mRNA expression level of α smooth muscle actin in the liver tissue [1]: significantly suppressed
